# Earlier results as cited in patent US5298246A, “Stable pharmaceutical composition and method for its production” (Kanegafuchi Kagaku Kogyo Kabushiki Kaisha, priority 1991, dated 1994).
smiles,measurement,value
COC1=C(OC)C(=O)C(C/C=C(\C)CC/C=C(\C)CC/C=C(\C)CC/C=C(\C)CC/C=C(\C)CC/C=C(\C)CC/C=C(\C)CC/C=C(\C)CC/C=C(\C)CCC=C(C)C)=C(C)C1=O [ubidecarenone],absorbability upon oral administration,low
